{"source": "patent US9662310B2", "about": "“Cyclopropanecarboxylic acid derivative” (DAIICHI SANKYO COMPANY, LIMITED, priority 2010, dated 2017)", "note": "pIC50: −log10 of the molar value. Where a name gives a salt, the structure may show the parent alone."}
{"target": "TAFIa (Homo sapiens (Human), UniProt Q96IY4)", "sequence (Q96IY4 115-423)": "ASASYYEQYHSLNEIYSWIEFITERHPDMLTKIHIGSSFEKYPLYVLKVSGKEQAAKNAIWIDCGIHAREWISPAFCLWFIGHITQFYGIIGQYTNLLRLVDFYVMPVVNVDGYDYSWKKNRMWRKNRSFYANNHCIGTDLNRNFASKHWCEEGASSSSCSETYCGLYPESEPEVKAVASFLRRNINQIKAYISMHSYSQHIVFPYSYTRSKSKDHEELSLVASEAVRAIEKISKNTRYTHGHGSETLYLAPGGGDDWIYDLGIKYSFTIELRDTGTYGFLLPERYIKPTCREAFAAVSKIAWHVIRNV", "assay": "Determination of TAFIa enzyme inhibitory activity (FAAK substrate degradation)", "assay_type": "biochemical", "conditions": "TAFI activated with human thrombin / rabbit lung thrombomodulin; substrate FAAK, absorbance at 330 nm; read-out: TAFIa IC50", "experimental": "(§1) Determination of TAFIa Enzyme Inhibitory Activity\n(§2) HEPES buffered saline (20 mM HEPES, 150 mM NaCl, pH 7.4; hereinafter, referred to as HBS) was used in the preparation of a reaction solution. To 12 μL of a 250 μg/mL TAFI solution, 30 μL of an HBS solution containing 4 U/mL human thrombin, 12 U/mL rabbit lung thrombomodulin, and 12 mM CaCl2 was added, and the mixture was gently stirred. Then, TAFI was activated at room temperature. Ten minutes later, thrombin was neutralized by the addition of 10 μL of 100 μM PPACK (thrombin inhibitor) to terminate the activation of TAFI. The formed TAFIa was stored in ice and diluted immediately before use in determination with 2050 μL of an HBS solution containing BSA (bovine serum albumin) adjusted to 0.1% in terms of the final concentration.\n(§3) (2) Determination of TAFIa Inhibitory Activity\n(§4) A test substance was dissolved in HBS to prepare a 10-fold dilution series of evaluation concentrations. 80 μL of the TAFIa solution and 10 μL of the test substance were added to each well of a 96-well plate and mixed by shaking for 10 minutes. 10 μL of furylacryloyl-alanyl-lysine (FAAK) adjusted to 5 mg/mL was added to each well, and the change in the absorbance of this mixed solution at 330 nm was read for 30 minutes to determine the degradation rate of the substrate.\n(§5) (3) Calculation of Inhibitory Activity IC50\n(§6) The degradation rate of the substrate in each well was applied to a standard curve prepared using the dilution series of the TAFIa solution to calculate TAFIa activity."}
{"smiles": "CC(CN)C[C@H]1C[C@]1(C(=O)O)c1cn(-c2ccc(S(C)(=O)=O)cc2)cn1", "note": "(relative stereo) [Example 34, (1R*,2S*)-2-(3-Amino-2-methylpropyl)-1-{1-[4-(methylsulfonyl)phenyl]-1H-imidazol-4-yl}cyclopropanecarboxylic acid]", "pIC50": 6.03}
{"smiles": "NCCC[C@H]1C[C@]1(C(=O)O)c1cn(-c2ccc(F)c(F)c2)cn1", "note": "(relative stereo) [Example 17, (1R*,2S*)-2-(3-Aminopropyl)-1-[1-(3,4-difluorophenyl)-1H-imidazol-4-yl]cyclopropanecarboxylic acid]", "pIC50": 7.21}
{"smiles": "CC(C)(CN)C[C@@H]1C[C@]1(C(=O)O)c1cn(-c2ccccc2)cn1", "note": "(relative stereo) [Example 52, (1R*,2R*)-2-(3-Amino-2,2-dimethylpropyl)-1-(1-phenyl-1H-imidazol-4-yl]cyclopropanecarboxylic acid]", "pIC50": "< 6.52"}
{"smiles": "Cc1cccc(-n2cnc([C@@]3(C(=O)O)C[C@@H]3CCCN)c2)n1", "note": "(relative stereo) [Example 65, (1R*,2S*)-2-(3-Aminopropyl)-1-[1-(6-methylpyridin-2-yl)-1H-imidazol-4-yl]cyclopropanecarboxylic acid]", "pIC50": 7.14}
{"smiles": "CC[C@@H](CN)C[C@H]1C[C@]1(C(=O)O)c1cn(-c2ccccn2)cn1", "note": "[Example 60, (1R,2S)-2-[(2R)-2-(Aminomethyl)butyl]-1-(1-pyridin-2-yl-1H-imidazol-4-yl)cyclopropanecarboxylic acid]", "pIC50": 8.08}
{"smiles": "NCCC[C@H]1C[C@]1(C(=O)O)c1cn(C2CCCCC2)cn1", "note": "(relative stereo) [Example 4, (1R*,2S*)-2-(3-Aminopropyl)-1-(1-cyclohexyl-1H-imidazol-4-yl)cyclopropanecarboxylic acid]", "pIC50": 7.54}
{"smiles": "CC(CCN)[C@H]1C[C@]1(C(=O)O)c1cn(-c2ccccc2)cn1", "note": "(relative stereo) [Example 36, (1R*,2R*)-2-(3-Amino-1-methylpropyl)-1-(1-phenyl-1H-imidazol-4-yl)cyclopropanecarboxylic acid]", "pIC50": 7.44}
{"smiles": "Cc1ccc(-n2cnc([C@@]3(C(=O)O)C[C@@H]3CCCN)c2)cc1", "note": "(relative stereo) [Example 7, (1R*,2S*)-2-(3-Aminopropyl)-1-[1-(4-methylphenyl)-1H-imidazol-4-yl]cyclopropanecarboxylic acid]", "pIC50": 7.80}
{"smiles": "CC[C@@H](CN)C[C@@H]1C[C@@]1(C(=O)O)c1cn(-c2ccccn2)cn1", "note": "[Example 61, (1S,2R)-2-[(2R)-2-(Aminomethyl)butyl]-1-(1-pyridin-2-yl-1H-imidazol-4-yl)cyclopropanecarboxylic acid]", "pIC50": 6.44}
{"smiles": "Cc1ccc(-n2cnc([C@@]3(C(=O)O)C[C@@H]3C[C@@H](C)CN)c2)nc1", "note": "[Example 58, (1R,2S)-2-[(2R)-3-Amino-2-methylpropyl]-1-[1-(5-methylpyridin-2-yl)-1H-imidazol-4-yl]cyclopropanecarboxylic acid]", "pIC50": 8.06}
{"smiles": "NCCC[C@H]1C[C@]1(C(=O)O)c1cn(-c2ccc3ccccc3c2)cn1", "note": "(relative stereo) [Example 21, (1R*,2S*)-2-(3-Aminopropyl)-1-[1-(2-naphthyl)-1H-imidazol-4-yl]cyclopropanecarboxylic acid]", "pIC50": 7.57}
{"smiles": "COc1ccc(-n2cnc([C@@]3(C(=O)O)C[C@@H]3CCCN)c2)nc1", "note": "(relative stereo) [Example 44, (1R*,2S*)-2-(3-Aminopropyl)-1-[1-(5-methoxypyridin-2-yl)-1H-imidazol-4-yl]cyclopropanecarboxylic acid]", "pIC50": 7.80}
{"smiles": "Cc1ccc(-n2cnc([C@]3(C(=O)O)C[C@H]3C[C@@H](C)CN)c2)nc1", "note": "[Example 59, (1S,2R)-2-[(2R)-3-Amino-2-methylpropyl]-1-[1-(5-methylpyridin-2-yl)-1H-imidazol-4-yl]cyclopropanecarboxylic acid]", "pIC50": 6.30}
{"smiles": "NCCC[C@H]1C[C@]1(C(=O)O)c1cn(-c2ccc3ccccc3n2)cn1", "note": "(relative stereo) [Example 42, (1R*,2S*)-2-(3-Aminopropyl)-1-(1-quinolin-2-yl-1H-imidazol-4-yl)cyclopropanecarboxylic acid]", "pIC50": 7.24}
{"smiles": "NCCC[C@H]1C[C@]1(C(=O)O)c1cn(-c2cccc(F)c2)cn1", "note": "(relative stereo) [Example 22, (1R*,2S*)-2-(3-Aminopropyl)-1-[1-(3-fluorophenyl)-1H-imidazol-4-yl]cyclopropanecarboxylic acid]", "pIC50": 7.40}
{"smiles": "Cc1ccnc(-n2cnc([C@@]3(C(=O)O)C[C@@H]3CCCN)c2)c1", "note": "(relative stereo) [Example 64, (1R*,2S*)-2-(3-Aminopropyl)-1-[1-(4-methylpyridin-2-yl)-1H-imidazol-4-yl]cyclopropanecarboxylic acid]", "pIC50": 7.72}
{"smiles": "C[C@H](CCN)C1CC1(C(=O)O)c1cn(-c2ccccn2)cn1", "note": "(stereo partly drawn) [Example 68, 2-[(2R)-4-Aminobutane-2-yl]-1-[1-(pyridin-2-yl)-1H-imidazol-4-yl)cyclopropanecarboxylic acid]", "pIC50": 7.92}
{"smiles": "Cc1ccc(-n2cnc([C@@]3(C(=O)O)C[C@@H]3CC(C)CN)c2)cc1", "note": "(relative stereo) [Example 33, (1R*,2S*)-2-(3-Amino-2-methylpropyl)-1-[1-(4-methylphenyl)-1H-imidazol-4-yl]cyclopropanecarboxylic acid]", "pIC50": 7.41}
{"smiles": "Cc1ccc(-n2cnc([C@@]3(C(=O)O)C[C@@H]3CCCN)c2)nc1", "note": "(relative stereo) [Example 49, (1R*,2S*)-2-(3-Aminopropyl)-1-[1-(5-methylpyridin-2-yl)-1H-imidazol-4-yl]cyclopropanecarboxylic acid]", "pIC50": 7.74}
{"smiles": "C[C@@H](CN)C[C@@H]1C[C@@]1(C(=O)O)c1cn(-c2ccccn2)cn1", "note": "[Example 55, (1S,2R)-2-[(2R)-3-Amino-2-methylpropyl]-1-(1-pyridin-2-yl-1H-imidazol-4-yl]cyclopropanecarboxylic acid]", "pIC50": "< 5.52"}
{"smiles": "C[C@H](CN)C[C@H]1C[C@]1(C(=O)O)c1cn(-c2ccccn2)cn1", "note": "[Example 56, (1R,2S)-2-[(2S)-3-Amino-2-methylpropyl]-1-(1-pyridin-2-yl-1H-imidazol-4-yl]cyclopropanecarboxylic acid]", "pIC50": 7.48}
{"smiles": "NCCC[C@H]1C[C@]1(C(=O)O)c1cn(-c2ccc(Cl)cn2)cn1", "note": "(relative stereo) [Example 45, (1R*,2S*)-2-(3-Aminopropyl)-1-[1-(5-chloropyridin-2-yl)-1H-imidazol-4-yl]cyclopropanecarboxylic acid]", "pIC50": 7.20}
{"smiles": "NCCC[C@H]1C[C@]1(C(=O)O)c1cn(-c2ccccn2)cn1", "note": "(relative stereo) [Example 25, (1R*,2S*)-2-(3-Aminopropyl)-1-(1-pyridin-2-yl-1H-imidazol-4-yl)cyclopropanecarboxylic acid]", "pIC50": 7.54}
{"smiles": "NCCC[C@H]1C[C@]1(C(=O)O)c1cn(-c2ccc3occc3c2)cn1", "note": "(relative stereo) [Example 43, (1R*,2S*)-2-(3-Aminopropyl)-1-[1-(1-benzofuran-5-yl)-1H-imidazol-4-yl]cyclopropanecarboxylic acid]", "pIC50": 7.59}
{"smiles": "NCCC[C@H]1C[C@]1(C(=O)O)c1cn(-c2cccs2)cn1", "note": "(relative stereo) [Example 37, (1R*,2S*)-2-(3-Aminopropyl)-1-[1-(2-thienyl)-1H-imidazol-4-yl]cyclopropanecarboxylic acid dihydrochloride]", "pIC50": 7.00}
{"smiles": "NCCC[C@H]1C[C@]1(C(=O)O)c1cn(-c2ccccc2)cn1", "note": "(relative stereo) [Example 6, (1R*,2S*)-2-(3-Aminopropyl)-1-(1-phenyl-1H-imidazol-4-yl)cyclopropanecarboxylic acid]", "pIC50": 7.57}
{"smiles": "NCCC[C@H]1C[C@]1(C(=O)O)c1cn(-c2ccc(O)nc2)cn1", "note": "(relative stereo) [Example 35, (1R*,2S*)-2-(3-Aminopropyl)-1-[1-(6-hydroxypyridin-3-yl)-1H-imidazol-4-yl]cyclopropanecarboxylic acid]", "pIC50": 6.47}
{"smiles": "Cc1ccc(-n2cnc([C@@]3(C(=O)O)C[C@@H]3CCCN)c2)cc1C", "note": "(relative stereo) [Example 10, (1R*,2S*)-2-(3-Aminopropyl)-1-[1-(3,4-dimethylphenyl)-1H-imidazol-4-yl]cyclopropanecarboxylic acid]", "pIC50": 7.38}
{"target": "TAFIa (Homo sapiens (Human), UniProt Q96IY4)", "assay": "Determination of TAFIa enzyme inhibitory activity (FAAK substrate degradation)", "assay_type": "biochemical", "conditions": "TAFIa IC50", "experimental": "as §1, §2, §3, §4, §5, §6"}
{"smiles": "CC(C)(C)CCn1cnc(C2(C(=O)O)CC2CCCN)c1", "note": "(single isomer, unassigned) [Example 2, (1R*,2R*)-2-(3-Aminopropyl)-1-[1-(3,3-dimethylbutyl)-1H-imidazol-4-yl]cyclopropanecarboxylic acid]", "pIC50": 6.38}
{"target": "TAFIa (Homo sapiens (Human), UniProt Q96IY4)", "assay": "Determination of TAFIa enzyme inhibitory activity (FAAK substrate degradation)", "assay_type": "biochemical", "conditions": "read-out: TAFIa IC50", "experimental": "as §1, §2, §3, §4, §5, §6"}
{"smiles": "CCC[C@@H](CN)C[C@H]1C[C@]1(C(=O)O)c1cn(-c2ccccn2)cn1", "note": "[Example 66, (1R,2S)-2-[(2R)-2-(Aminomethyl)pentyl]-1-(1-pyridin-2-yl-1H-imidazol-4-yl)cyclopropanecarboxylic acid]", "pIC50": 7.39}
{"smiles": "CCC(CN)CC1C[C@]1(C(=O)O)c1cn(-c2ccccc2)cn1", "note": "(stereo partly drawn) [Example 53, (1R,2S)-2-[(2-Aminomethyl)butyl]-1-(1-phenyl-1H-imidazol-4-yl]cyclopropanecarboxylic acid]", "pIC50": 7.89}
{"smiles": "CC[C@H](CN)C[C@H]1C[C@]1(C(=O)O)c1cn(-c2ccccc2)cn1", "note": "[Example 63, (1R,2S)-2-[(25)-2-(Aminomethyl)butyl]-1-(1-phenyl-1H-imidazol-4-yl)cyclopropanecarboxylic acid]", "pIC50": 7.92}
